Biological target: T1, PAR4 (Homo sapiens, UniProt Q96RI0)
T1 construct: expressed in transfected cells; host or cells: HEK293 PAR4 Clone 1.2A (BMS Arctic ID 383940)
T1 sequence (Q96RI0 18-385): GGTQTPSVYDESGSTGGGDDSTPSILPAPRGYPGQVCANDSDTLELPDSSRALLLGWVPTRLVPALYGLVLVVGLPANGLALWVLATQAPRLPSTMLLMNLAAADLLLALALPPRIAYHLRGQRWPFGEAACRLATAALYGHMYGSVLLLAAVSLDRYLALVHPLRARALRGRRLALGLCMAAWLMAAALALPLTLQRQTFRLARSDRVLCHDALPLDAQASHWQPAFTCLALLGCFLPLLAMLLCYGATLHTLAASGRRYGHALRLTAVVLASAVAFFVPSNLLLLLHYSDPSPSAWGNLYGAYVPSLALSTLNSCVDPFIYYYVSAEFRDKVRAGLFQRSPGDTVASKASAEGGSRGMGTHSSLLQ
Assay: PAR4 FLIPR assay (antagonism of agonist peptide-induced calcium mobilization)
Assay type: cell-based
Summary of the method: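 Antagonism was taken as block of calcium mobilization evoked by the agonist peptide H-Ala-Phe(4-F)-Pro-Gly-Trp-Leu-Val-Lys-Asn-[…]-NH2, added after 30 min room-temperature compound preincubation in dye-loaded PAR4-transfected HEK293 cells (endogenous PAR1). Fluorescence was read on FDSS, with compound addition alone used as the agonist counter-screen; values come from 11-point concentration-response curves.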

SMILES	IC50 [nM]
CCOc1cnc2c(-c3nc4cc(F)c5c(c4s3)C[C@H](COC(=O)Nc3cnc(C)nc3)O5)cc(C)cc2n1 [Example 153, (R)-(2-(2-ethoxy-7-methylquinoxalin-5-yl)-5-fluoro-7,8-dihydrobenzofuro[5,4-d]thiazol-7-yl)methyl (2-methylpyrimidin-5-yl)carbamate]	2.4
COc1cnc2c(-c3nc4cc(F)c5c(c4s3)C[C@H](COC(=O)Nc3cccnc3)O5)cc(C)cc2n1 [Example 157, (R)-(5-fluoro-2-(2-methoxy-7-methylquinoxalin-5-yl)-7,8-dihydrobenzofuro[5,4-d]thiazo 1-7-yl)methyl pyridin-3-ylcarbamate]	0.8
COc1cnc2c(-c3nc4cc(F)c5c(c4s3)C[C@H](COC(=O)Nc3ccc(C)nc3)O5)cc(C)cc2n1 [Example 159, (R)-(5-fluoro-2-(2-methoxy-7-methylquinoxalin-5-yl)-7,8-dihydrobenzofuro[5,4-d]thiazol-7-yl)methyl (6-methylpyridin-3-yl)carbamate]	0.6
COc1cnc2c(-c3nc4cc(F)c5c(c4s3)C[C@H](COC(=O)Nc3cncc(F)c3)O5)cc(C)cc2n1 [Example 161, (R)-(5-fluoro-2-(2-methoxy-7-methylquinoxalin-5-yl)-7,8-dihydrobenzofuro[5,4-d]thiazo 1-7-yl)methyl (5-fluoropyridin-3-yl)carbamate]	1.1
COc1cnc2c(-c3nc4cc(F)c5c(c4s3)C[C@H](COC(=O)Nc3cccc(C#N)c3)O5)cc(C)cc2n1 [Example 162, (R)-(5-fluoro-2-(2-methoxy-7-methylquinoxalin-5-yl)-7,8-dihydrobenzofuro[5,4-d]thiazol-7-yl)methyl (3-cyanophenyl)carbamate]	0.7
COc1cc(NC(=O)OC[C@H]2Cc3c(c(F)cc4nc(-c5cc(C)cc6nc(OC)cnc56)sc34)O2)ccn1 [Example 163, (R)-(5-fluoro-2-(2-methoxy-7-methylquinoxalin-5-yl)-7,8-dihydrobenzofuro[5,4-d]thiazo 1-7-yl)methyl (2-methoxypyridin-4-yl)carbamate]	160
COc1cnc2c(-c3nc4cc(F)c5c(c4s3)C[C@H](COC(=O)Nc3ccc(OCCO)nc3)O5)cc(C)cc2n1 [Example 165, (R)-(5-fluoro-2-(2-methoxy-7-methylquinoxalin-5-yl)-7,8-dihydrobenzofuro[5,4-d]thiazo 1-7-yl)methyl (6-(2-hydroxyethoxy)pyridin-3-yl)carbamate]	1
COc1cnc2c(-c3nc4cc(F)c5c(c4s3)C[C@H](COC(=O)Nc3ccc(OCC(F)(F)CO)nc3)O5)cc(C)cc2n1 [Example 166, (R)-(5-fluoro-2-(2-methoxy-7-methylquinoxalin-5-yl)-7,8-dihydrobenzofuro[5,4-d]thiazo 1-7-yl)methyl (6-(2,2-difluoro-3-hydroxypropoxy)pyridin-3-yl)carbamate]	1.1
COc1cncc(NC(=O)OC[C@H]2Cc3c(c(F)cc4nc(-c5cc(C)cc6nc(OC)cnc56)sc34)O2)c1 [Example 168, (R)-(5-fluoro-2-(2-methoxy-7-methylquinoxalin-5-yl)-7,8-dihydrobenzofuro[5,4-d]thiazo 1-7-yl)methyl (5-methoxypyridin-3-yl)carbamate]	5
COc1cnc2c(-c3nc4cc(F)c5c(c4s3)C[C@H](COC(=O)Nc3ccc(C(=O)N4CCOCC4)cc3)O5)cc(C)cc2n1 [Example 169, (R)-(5-fluoro-2-(2-methoxy-7-methylquinoxalin-5-yl)-7,8-dihydrobenzofuro[5,4-d]thiazol-7-yl)methyl (4-(morpholine-4-carbonyl)phenyl)carbamate]	6.6
COc1cnc2c(-c3nc4cc(F)c5c(c4s3)C[C@H](COC(=O)Nc3ccc(F)nc3)O5)cc(C)cc2n1 [Example 170, (R)-(5-fluoro-2-(2-methoxy-7-methylquinoxalin-5-yl)-7,8-dihydrobenzofuro[5,4-d]thiazo 1-7-yl)methyl (6-fluoropyridin-3-yl)carbamate]	5.7
COc1cnc2c(-c3nc4cc(F)c5c(c4s3)C[C@H](COC(=O)Nc3cnc(OCCO)nc3)O5)cc(C)cc2n1 [Example 173, (R)-(5-fluoro-2-(2-methoxy-7-methylquinoxalin-5-yl)-7,8-dihydrobenzofuro[5,4-d]thiazo 1-7-yl)methyl (2-(2-hydroxyethoxy)pyrimidin-5-yl)carbamate]	1.3
COc1cnc2c(-c3nc4cc(F)c5c(c4s3)C[C@@](C)(COC(=O)Nc3cnc(C)nc3)O5)cc(C)cc2n1 [Example 174, (S)-(5-fluoro-2-(2-methoxy-7-methylquinoxalin-5-yl)-7-methyl-7,8-dihydrobenzofuro[5,4-d]thiazol-7-yl)methyl (2-methylpyrimidin-5-yl)carbamate]	30
COc1cnc2c(-c3nc4cc(F)c5c(c4s3)C[C@@](C)(COC(=O)Nc3cccnc3)O5)cc(C)cc2n1 [Example 175, (S)-(5-fluoro-2-(2-methoxy-7-methylquinoxalin-5-yl)-7-methyl-7,8-dihydrobenzofuro[5,4-d]thiazol-7-yl)methyl pyridin-3-ylcarbamate]	19
COc1cnc2c(-c3nc4cc(F)c5c(c4s3)C[C@@](C)(COC(=O)Nc3cccc(C#N)c3)O5)cc(C)cc2n1 [Example 176, (S)-(5-fluoro-2-(2-methoxy-7-methylquinoxalin-5-yl)-7-methyl-7,8-dihydrobenzofuro[5,4-d]thiazol-7-yl)methyl (3-cyanophenyl)carbamate]	6.1
COc1cnc2c(-c3nc4cc(F)c5c(c4s3)C[C@H](COC(=O)Nc3ccc4c(c3)C(=O)NC4)O5)cc(C)cc2n1 [Example 178, (R)-(5-fluoro-2-(2-methoxy-7-methylquinoxalin-5-yl)-7,8-dihydrobenzofuro[5,4-d]thiazo 1-7-yl)methyl (3-oxoisoindolin-5-yl)carbamate]	2.3

Further compounds by falling IC50, results first:

IC50 [nM]	SMILES
45	COc1cnc2c(-c3nc4ccc5c(c4s3)CC(C)(CO)O5)cc(C)cc2n1 (stereo not drawn) [Example 171, (2-(2-methoxy-7-methylquinoxalin-5-yl)-7-methyl-7,8-dihydrobenzofuro[5,4-d]thiazol-7-yl)methanol]
28	COC(=O)[C@@H]1Cc2c(ccc3nc(-c4cc(C)cc5nc(OC)cnc45)sc23)O1 [Example 156, (S)-methyl 2-(2-methoxy-7-methylquinoxalin-5-yl)-7,8-dihydrobenzofuro[5,4-d]thiazole-7-carboxylate]
13	COc1cnc2c(-c3nc4cc(F)c5c(c4s3)C[C@H](COC(=O)Nc3cnc(CCO)nc3)O5)cc(C)cc2n1 [Example 155, (R)-(5-fluoro-2-(2-methoxy-7-methylquinoxalin-5-yl)-7,8-dihydrobenzofuro[5,4-d]thiazo 1-7-yl)methyl (2-(2-hydroxyethyl)pyrimidin-5-yl)carbamate]
6.3	COc1cnc2c(-c3nc4cc(F)c5c(c4s3)C[C@H](COC(=O)Nc3cncc(C#N)c3)O5)cc(C)cc2n1 [Example 154, (R)-(5-fluoro-2-(2-methoxy-7-methylquinoxalin-5-yl)-7,8-dihydrobenzofuro[5,4-d]thiazol-7-yl)methyl (5-cyanopyridin-3-yl)carbamate]
3.1	COc1cnc2c(-c3nc4cc(F)c5c(c4s3)CC(C)(CO)O5)cc(C)cc2n1 (stereo not drawn) [Example 167, (5-fluoro-2-(2-methoxy-7-methylquinoxalin-5-yl)-7-methyl-7,8-dihydrobenzofuro[5,4-d]thiazol-7-yl)methanol]
2.8	COc1cnc2c(-c3nc4cc(F)c5c(c4s3)C[C@H](COC(=O)Nc3cnc(OC)nc3)O5)cc(C)cc2n1 [Example 177, (R)-(5-fluoro-2-(2-methoxy-7-methylquinoxalin-5-yl)-7,8-dihydrobenzofuro[5,4-d]thiazol-7-yl)methyl (2-methoxypyrimidin-5-yl)carbamate]
2.4	COc1cnc2c(-c3nc4cc(F)c5c(c4s3)C[C@H](COC(=O)Nc3cc(F)cc(C#N)c3)O5)cc(C)cc2n1 [Example 179, (R)-(5-fluoro-2-(2-methoxy-7-methylquinoxalin-5-yl)-7,8-dihydrobenzofuro[5,4-d]thiazo 1-7-yl)methyl (3-cyano-5-fluorophenyl)carbamate]
1.6	COc1ccc(NC(=O)OC[C@H]2Cc3c(c(F)cc4nc(-c5cc(C)cc6nc(OC)cnc56)sc34)O2)cn1 [Example 164, (R)-(5-fluoro-2-(2-methoxy-7-methylquinoxalin-5-yl)-7,8-dihydrobenzofuro[5,4-d]thiazo 1-7-yl)methyl (6-methoxypyridin-3-yl)carbamate]
1.6	COc1cnc2c(-c3nc4cc(F)c5c(c4s3)C[C@H](COC(=O)Nc3cccc(C(N)=O)c3)O5)cc(C)cc2n1 [Example 180, (R)-(5-fluoro-2-(2-methoxy-7-methylquinoxalin-5-yl)-7,8-dihydrobenzofuro[5,4-d]thiazol-7-yl)methyl (3-carbamoylphenyl)carbamate]
1.1	COc1cnc2c(-c3nc4cc(F)c5c(c4s3)C[C@@](C)(CO)O5)cc(C)cc2n1 [Example 172, (S)-(5-fluoro-2-(2-methoxy-7-methylquinoxalin-5-yl)-7-methyl-7,8-dihydrobenzofuro[5,4-d]thiazol-7-yl)methanol]
0.6	COc1cnc2c(-c3nc4cc(F)c5c(c4s3)C[C@H](COC(=O)Nc3ccnc(C)c3)O5)cc(C)cc2n1 [Example 160, (R)-(5-fluoro-2-(2-methoxy-7-methylquinoxalin-5-yl)-7,8-dihydrobenzofuro[5,4-d]thiazol-7-yl)methyl (2-methylpyridin-4-yl)carbamate]
